In patent US11390629B2, “1,5-disubstituted 1,2,3-triazoles are inhibitors of Rac/Cdc42 GTPases” (UNIVERSITY OF PUERTO RICO, priority 2016, dated 2022):
“And” between values parts separate entries of the source, which are not always exact repeats. Equal entries are not always repeated. Where two headings read alike, the source gives them in different places. One block for each molecule: values may come before it.

Assays:
MDA-MB-231 = test: Migration inhibition, MDA-MB-231 (Table 1B); assay type: cell-based; conditions: Homo sapiens
MDA-MB-231 cells = test: Cell viability assay (CellTiter 96 / MTT), MDA-MB-231; conditions: Homo sapiens, MDA-MB-231, read-out: GI50 (μM) MDA-MB-231
Rac and Cdc42 = conditions: cited from earlier work
Rac = conditions: read-out: IC50 (effective concentrations); cited from earlier work
Rac1 [1] = target: T1, Rac1 (Homo sapiens, UniProt P63000); test: Rac activity inhibition by EHop-016 (reported), MDA-MB-435 metastatic cells; assay type: cell-based
T1 construct: host or cells: MDA-MB-435

Rac1 [2] = target: T1, Rac1; conditions: cited from earlier work
Cdc42 = Cdc42 (Homo sapiens, UniProt P60953); conditions: cited from earlier work
[3] = after oral and intraperitoneal (i.p.) administration; cited from earlier work
mammary tumor = conditions: cited from earlier work

Chain of Cdc42 (P60953 whole entry): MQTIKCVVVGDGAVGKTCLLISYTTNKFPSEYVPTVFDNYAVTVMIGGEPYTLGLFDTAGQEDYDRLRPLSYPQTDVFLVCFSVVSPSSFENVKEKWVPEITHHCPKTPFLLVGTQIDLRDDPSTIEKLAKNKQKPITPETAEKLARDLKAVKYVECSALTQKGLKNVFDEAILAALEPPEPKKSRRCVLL

SMILES: CCn1c2ccccc2c2cc(-n3nncc3CCO)ccc21 [I-8, 2-(1-(9-ethyl-9H-carbazol-3-yl)-1H-1,2,3-triazol-5-yl)ethan-1-ol]
- GI50 (MDA-MB-231 cells): > 50 µM

SMILES: Cc1cc2cc(Nc3ccnc(Nc4ccc5[nH]c(C)cc5c4)n3)ccc2[nH]1 [Aza-1]
- effective concentration range (Rac and Cdc42): effective in the micromolar range

SMILES: CCN(CC)CCCC(C)Nc1nc(C)cc(Nc2ccc3nc(C)cc(N)c3c2)n1 (centres unmarked) [NSC23766]
- IC50 (Rac): > 75 µM

SMILES: CCn1c2ccccc2c2cc(Nc3ccnc(NCCCN4CCOCC4)n3)ccc21 [EHop-016]
- potency relative to NSC23766 (Rac1 [1]): ~100 ×
- IC50 (Rac1 [2]; MDA-MB-435 metastatic cells, read-out: IC50 for Rac activity): 1.1 µM and ~1.1 µM
- concentrations inhibiting Rac1 activity (Rac1 [2]): < 5 µM
- inhibition of Rac activity (Rac1 [2]; higher concentrations (>10 μM)): 100%
- IC50 (Rac1 [2]; read-out: IC50 (Rac inhibitor)): 1.1 µM
- concentrations inhibiting Cdc42 activity (Cdc42): ≥ 10 µM
- inhibition of Cdc42 activity (Cdc42; higher concentrations (>10 μM)): 75%
- IC50 (Cdc42; read-out: IC50 for Cdc42 inhibition): ~8 µM
- average half-life [3]: 4.5 h
- bioavailability [3]: ~30%
- reduction of tumor growth (mammary tumor; 10 mg/kg BW): ~40%
- effect on mammary tumor growth, metastasis and angiogenesis (mammary tumor; 25 mg/kg BW): reduces mammary tumor growth, metastasis, and angiogenesis
- toxicity (mammary tumor; 25 mg/kg BW): without apparent toxicity

SMILES: CCn1c2ccccc2c2cc(-n3nncc3-c3ccc(Oc4ccccc4)cc3)ccc21 [I-7]
- inhibition at 10 µM (MDA-MB-231): 30.8%
- GI50 (MDA-MB-231 cells): > 50 µM

SMILES: COc1ccc(C2=NN(c3ccc(S(N)(=O)=O)cc3)C(c3ccccc3)C2)cc1 (centres unmarked) [CID2950007/ML141]
- effective concentration range (Rac and Cdc42): effective in the micromolar range

The next lines start with results.

- GI50 (MDA-MB-231 cells): 0.248 µM
SMILES: CCn1c2ccccc2c2cc(-n3nncc3-c3cccc(OC)c3)ccc21 [I-3, 9-ethyl-3-(5-(3-methoxyphenyl)-1H-1,2,3-triazol-1-yl)-9H-carbazole]
- inhibition at 1 µM (MDA-MB-231): ≤ 1%

- GI50 (MDA-MB-231 cells): 1.33 µM
SMILES: CCn1c2ccccc2c2cc(-n3nncc3-c3cccc(C)c3)ccc21 [I-2, 9-ethyl-3-(5-(m-tolyl)-1H-1,2,3-triazol-1-yl)-9H-carbazole]
- inhibition at 1 µM (MDA-MB-231): ≤ 1%

- GI50 (MDA-MB-231 cells): > 50 µM
SMILES: CCn1c2ccccc2c2cc(-n3nncc3-c3cccnc3)ccc21 [I-4, 9-ethyl-3-(5-(pyridin-3-yl)-1H-1,2,3-triazol-1-yl)-9H-carbazole]
- inhibition at 10 µM (MDA-MB-231): 65.1%

- GI50 (MDA-MB-231 cells): 0.408 µM
SMILES: CCn1c2ccccc2c2cc(-n3nncc3-c3ccsc3)ccc21 [I-5, 9-ethyl-3-(5-(thiophen-3-yl)-1H-1,2,3-triazol-1-yl)-9H-carbazole]
- inhibition at 1 µM (MDA-MB-231): 2.4%

- GI50 (MDA-MB-231 cells): > 50 µM
SMILES: CCn1c2ccccc2c2cc(-n3nncc3-c3ccccn3)ccc21 [I-6, 9-ethyl-3-(5-(pyridin-2-yl)-1H-1,2,3-triazol-1-yl)-9H-carbazole]
- inhibition at 10 µM (MDA-MB-231): 28%
